Reference: patent US20260365682A1, “MODULATORS OF TNF-ALPHA ACTIVITY” (Forward Therapeutics, Inc., priority 2022, published 2026)

Molecular target: T1, TNF-α (Homo sapiens, UniProt P01375)
T1 construct: purchased R&D 210-TA-020/CF
Experiment: TNF-α Induced HEK Blue Cellular Assay (secreted alkaline phosphatase expression, QUANTI-Blue)
Assay type: cell-based
Conditions: HEK Blue TNFα reporter cells; TNF-α 100 μg/ml; 24 hrs at 37° C.; inhibition of secreted alkaline phosphatase; read-out: IC50 value
In short: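 Compound was serially diluted from […] to 0.5 nM final, then incubated with 10,000 HEK Blue TNFα reporter cells per well and […] TNF-α for 24 h at 37° C. SEAP output was read by QUANTI-Blue absorbance at 620 nm. Inhibition was background-corrected against DMSO controls with and without stimulation, and IC50 was fitted with a 4-parameter logistic equation.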

T1 sequence (P01375 77-233 limits assumed): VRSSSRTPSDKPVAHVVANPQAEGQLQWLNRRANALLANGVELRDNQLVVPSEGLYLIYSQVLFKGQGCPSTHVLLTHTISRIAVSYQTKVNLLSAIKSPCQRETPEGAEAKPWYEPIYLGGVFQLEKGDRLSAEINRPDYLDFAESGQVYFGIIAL

## [2H]C([2H])([2H])N1C(=O)c2cccc(OC(F)F)c2[C@H]2C[C@@H]1c1nc3ccc(C#Cc4nnc(NC(C)=O)s4)cc3n12 [Example 260, N-(5-(((7R,14R)-1-(difluoromethoxy)-6-(methyl-d3)-5-oxo-5,6,7,14-tetrahydro-7,14-methanobenzo[f]benzo[4,5]imidazo[1,2-a][1,4]diazocin-11-yl)ethynyl)-1,3,4-thiadiazol-2-yl)acetamide]
  IC50: < 100 nM

## [2H]C([2H])([2H])N1C(=O)c2cccc(OC(F)F)c2[C@H]2C[C@@H]1c1nc3ccc(C#Cc4nnc(NC(=O)OC(C)(C)C)s4)cc3n12 [Example 261, tert-butyl (5-(((7R,14R)-1-(difluoromethoxy)-6-(methyl-d3)-5-oxo-5,6,7,14-tetrahydro-7,14-methanobenzo[f]benzo[4,5]imidazo[1,2-a][1,4]diazocin-11-yl)ethynyl)-1,3,4-thiadiazol-2-yl)carbamate]
  IC50: < 100 nM

## [2H]C([2H])([2H])N1C(=O)c2cccc(OC(F)F)c2[C@H]2C[C@@H]1c1nc3ccc(C#CC#N)cc3n12 [Example 262, 3-((7R,14R)-1-(difluoromethoxy)-6-(methyl-d3)-5-oxo-5,6,7,14-tetrahydro-7,14-methanobenzo[f]benzo[4,5]imidazo[1,2-a][1,4]diazocin-11-yl)propiolonitrile]
  IC50: < 100 nM

## [2H]C([2H])([2H])N1C(=O)c2cccc(OC(F)F)c2[C@H]2C[C@@H]1c1nc3ccc(C#Cc4nnc(N)s4)cc3n12 [Example 263, (7R,14R)-11-((5-amino-1,3,4-thiadiazol-2-yl)ethynyl)-1-(difluoromethoxy)-6-(methyl-d3)-6,7-dihydro-7,14-methanobenzo[f]benzo[4,5]imidazo[1,2-a][1,4]diazocin-5(14H)-one]
  IC50: < 100 nM
